Assay results published in patent publication US20080306007A1, “AGENTS FOR PROPHYLAXIS OR TREATMENT OF NEUROLOGICAL RELATED DISEASES AND CONDITIONS” (Newcastle Innovation Limited, priority 2007, published 2008).

Columns and labels:
[1] = tested on: synaptosomes (SV exocytosis); test: KCl-evoked Ca2+-dependent glutamate release assay in synaptosomes; assay type: cell-based, rat; details: peptide preincubated 30 min; KCl stimulation
Procedure: (§1) In all SV recycling studies synaptosomes were prepared from rat cerebral cortex by centrifugation on discontinuous percoll gradients (Dunkley et al. 1986). The glutamate release assay was performed as described before (Cousin and Robinson 2000a). Data is presented as Ca^2+-dependent glutamate release, calculated as the difference between release in plus and minus Ca^2+ solutions. Penetratin peptides (Genemed Synthesis) were preincubated with the synaptosomes for 30 min before stimulation and had no effect on Ca^2+-independent release of glutamate.
A block in SV turnover cannot be ascribed to an inhibition of SVE until an effect on exocytosis has been excluded. Two independent exocytosis assays were conducted to assess this: endogenous glutamate release and FM2-10 unloading. Neither the DynI769-784AA nor DynI769-784EE peptide had any significant effect on KCl-evoked Ca^2+-dependent glutamate release (DynI769-784AA […]±8.4% of control; DynI769-784EE […]±9.5% of control, FIG. 5c). Both peptides had small effects on FM2-10 unloading evoked by 30 mM KCl (DynI769-784AA −81.1±0.8% of control; DynI769-784EE −82.3±0.6% of control, FIG. 5d). Finally, the extent of SVE inhibition by the peptides was quantified by calculating “retrieval efficiency” which takes into account prior exocytosis; a value of less than one indicating a selective SVE inhibition. […]

[2] = tested on: synaptosomes (SV exocytosis); test: FM2-10 unloading (SV exocytosis) assay in synaptosomes; assay type: cell-based, rat; details: evoked by 30 mM KCl; peptide preincubated 30 min before unloading
Procedure: Loading of FM2-10 (Molecular Probes) into recycling synaptosomal SVs was measured as previously described. Data is presented as Ca^2+-dependent FM2-10 unloading, which is the difference between release after loading in plus and minus Ca^2+ solutions. Where indicated, synaptosomes were preincubated with penetratin peptide for 30 min prior to stimulation of FM2-10 loading. […] The same assay was used to monitor the effect of penetratin peptide on SV exocytosis. However, in this instance, the synaptosomes were loaded with FM2-10 in plus Ca^2+ Krebs-like solution and, where indicated, were preincubated with penetratin peptide for 30 min prior to stimulation of FM2-10 unloading. Data is presented as Ca^2+-dependent FM2-10 unloading. The SV internalisation assay was performed as previously described.
A block in SV turnover cannot be ascribed to an inhibition of SVE until an effect on exocytosis has been excluded. Two independent exocytosis assays were conducted to assess this: endogenous glutamate release and FM2-10 unloading. […] Finally, the extent of SVE inhibition by the peptides was quantified by calculating “retrieval efficiency” which takes into account prior exocytosis; a value of less than one indicating a selective SVE inhibition. […]

[3] = molecular target: T1, dynamin I-endophilin I interaction (Rattus norvegicus, UniProt O35179); test: Elution of endophilin I from immunoprecipitated complex by peptide; assay type: binding; details: immunoprecipitated complex incubated with peptide
T1 construct: Syndapin I or dynamin I were immunoprecipitated from nerve terminals; from tissue; host or cells: rat brain crude (P2) synaptosomes
Procedure: (§2) To determine whether the phospho-box sequence might account for syndapin I recruitment to dynamin I, the ability of a DynI769-784AA peptide (FIG. 5a) to disrupt their interaction was tested. Syndapin I or dynamin I were immunoprecipitated from nerve terminals and the individual protein complexes were incubated with DynI769-784AA (SEQ ID No. 8) peptide (see below). Their interaction in both cases was reduced by the peptide, as indicated by the specific release of either binding partner from the bead-bound complex (FIG. 4c). No elution of endophilin I (FIG. 4c) or amphiphysin I (data not shown) was detected, highlighting the specificity of the interaction.
(§3) Crude (P2) synaptosomes were prepared from rat brain and lysed as described in Example 1.1.3. Synaptosome lysates were incubated with 5 μg of anti-syndapin I or […] pre-bound to protein G-sepharose (Roche) for 3 h at 4° C. Beads were washed with ice-cold PBS, eluted in SDS-PAGE sample buffer and blotted with anti-syndapin I, anti-endophilin I and anti-dynamin I antibodies.

U2OS cells = test: Transferrin (Tfn) endocytosis (RME) in U2OS cells; assay type: cell-based; details: 15 min peptide preincubation at various concentrations, Tfn 15 min at 37° C.
Procedure: Briefly, non-neuronal U2OS cells were preincubated with vehicle only or each peptide at various concentrations for 15 min. Cells were then incubated with Tfn for 15 min at 37° C., acid washed, fixed and internalized Tfn was detected by fluorescence microscopy. Quantitative analysis of endocytosis in the presence of different concentrations of the peptides is shown as mean fluorescence as a percent of fluorescence in control cells. The results shown in FIG. 11 are representative of 2 independent experiments. Endocytosis in control cells (no peptide) is expressed as 100%.

[4] = tested on: synaptosomes (glutamate release); test: 4-AP evoked glutamate release (repetitive stimulation) in synaptosomes; assay type: cell-based, rat; details: 4-AP 1 mM
Procedure: as §1
Selective inhibition of SVE by the phospho-box peptide should produce a rundown or fatigue of glutamate release after repeated stimuli, since the supply of SVs will progressively decline. To produce repetitive stimulation in synaptosomes the K^+ channel blocker 4-aminopyridine (4-AP) was used. This produces a tetrodotoxin-sensitive repetitive firing that mimics in vivo stimulation. It has previously been reported that 4-AP evokes continual SV recycling for at least 15 minutes in synaptosomes. […] The inset is also zoomed on the first 3 min from 4-AP addition (which was at 60 s) to highlight the lack of effect during the first 45s.

[5] = molecular target: T2, dynamin I-syndapin I complex (Rattus norvegicus, UniProt Q9Z0W5); test: Peptide disruption of immunoprecipitated dynamin I-syndapin I complex from nerve terminals; assay type: binding; details: syndapin I or dynamin I immunoprecipitates incubated with peptide
T2 construct: Syndapin I or dynamin I were immunoprecipitated from nerve terminals; from tissue; host or cells: rat brain crude (P2) synaptosomes
Procedure: as §2, §3

amphiphysin I = molecular target: T3, amphiphysin I (Rattus norvegicus, UniProt O08838); test: Elution of amphiphysin I from immunoprecipitated complex by peptide; assay type: binding; details: data not shown
T3 construct: Syndapin I or dynamin I were immunoprecipitated from nerve terminals; from tissue; host or cells: rat brain crude (P2) synaptosomes
T3 sequence (O08838 1-683): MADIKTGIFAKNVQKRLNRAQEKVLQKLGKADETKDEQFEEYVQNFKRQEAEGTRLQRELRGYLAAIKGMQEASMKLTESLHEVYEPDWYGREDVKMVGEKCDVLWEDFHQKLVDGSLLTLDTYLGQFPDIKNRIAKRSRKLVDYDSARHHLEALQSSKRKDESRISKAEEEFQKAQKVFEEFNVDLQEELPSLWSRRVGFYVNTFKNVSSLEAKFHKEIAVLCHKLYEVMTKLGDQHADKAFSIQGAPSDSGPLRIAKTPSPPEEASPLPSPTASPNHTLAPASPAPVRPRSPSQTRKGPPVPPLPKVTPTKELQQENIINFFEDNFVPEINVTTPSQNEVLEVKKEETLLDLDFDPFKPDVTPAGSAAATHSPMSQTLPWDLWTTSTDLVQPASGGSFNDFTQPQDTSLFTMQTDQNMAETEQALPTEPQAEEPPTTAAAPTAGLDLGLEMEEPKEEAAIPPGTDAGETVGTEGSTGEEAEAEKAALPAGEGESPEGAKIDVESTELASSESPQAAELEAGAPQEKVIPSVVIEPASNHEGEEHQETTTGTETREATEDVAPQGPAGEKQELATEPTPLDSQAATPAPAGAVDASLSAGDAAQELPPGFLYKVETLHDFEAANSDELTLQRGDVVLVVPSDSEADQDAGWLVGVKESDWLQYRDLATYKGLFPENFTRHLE
Procedure: as §2, §3

T2 sequence (Q9Z0W5 whole entry, one chain of several): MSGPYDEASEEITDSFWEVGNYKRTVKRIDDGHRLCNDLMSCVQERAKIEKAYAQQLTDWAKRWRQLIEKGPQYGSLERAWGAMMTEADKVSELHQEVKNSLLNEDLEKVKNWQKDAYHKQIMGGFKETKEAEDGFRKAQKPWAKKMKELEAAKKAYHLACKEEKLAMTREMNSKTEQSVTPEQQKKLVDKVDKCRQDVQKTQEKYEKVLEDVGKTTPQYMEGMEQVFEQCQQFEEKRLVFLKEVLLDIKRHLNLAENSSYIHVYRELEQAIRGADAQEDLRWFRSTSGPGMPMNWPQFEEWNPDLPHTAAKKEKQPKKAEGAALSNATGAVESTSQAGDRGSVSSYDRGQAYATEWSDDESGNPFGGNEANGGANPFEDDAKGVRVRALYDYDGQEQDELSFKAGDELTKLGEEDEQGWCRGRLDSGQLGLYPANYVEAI
T1 sequence (O35179 whole entry): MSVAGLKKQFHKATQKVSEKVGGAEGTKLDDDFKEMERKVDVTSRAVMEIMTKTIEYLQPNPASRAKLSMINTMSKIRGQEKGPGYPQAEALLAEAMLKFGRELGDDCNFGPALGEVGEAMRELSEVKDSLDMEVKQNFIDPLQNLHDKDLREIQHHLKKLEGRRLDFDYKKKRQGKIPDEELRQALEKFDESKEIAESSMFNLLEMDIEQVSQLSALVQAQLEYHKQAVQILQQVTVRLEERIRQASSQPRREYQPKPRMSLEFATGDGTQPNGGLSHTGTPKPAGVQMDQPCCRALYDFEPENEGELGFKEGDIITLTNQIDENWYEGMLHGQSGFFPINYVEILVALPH

elution of endophilin I from complex [3]: No elution | dynamin I-syndapin I interaction (release of binding partner from bead-bound complex) [5]: reduced | elution of amphiphysin I from complex (amphiphysin I): No elution
Substance: DynI769-784AA: Dynamin I phospho-box mimetic peptide (residues 769-784), AA mutant, tagged with penetratin heptapeptide RRMKWKK (RRMKWKKPAGRRAPTSAPTPQRR; listed as Rattus norvegicus)
KCl-evoked Ca2+-dependent glutamate release [1]: 92.5±8.4 % of control | FM2-10 unloading [2]: 81.1±0.8 % of control | endocytosis of transferrin (Tfn), RME (U2OS cells): without effect | effect on the first 45 sec of 4-AP evoked exocytosis ([4]; first 45 sec): without effect | effect on 4-AP evoked glutamate release with continued stimulation ([4]; repetitive stimulation): activity-dependent depression of release that increased with continued stimulation
